Where two headings read alike, the source gives them in different places.
How the values were obtained:
MCF-7 = experiment: MTT cell growth inhibition: MCF-7; type: cell-based; settings: MCF-7 breast carcinoma; for GI50 / inhibition at 25 µM: Homo sapiens; for GI50: MCF7, read-out: GI50 = Concentration (µM) that inhibits cell growth by 50%, dose response; for inhibition at 25 µM: MCF7, read-out: Percentage (%) Cell Growth Inhibition in response to 25 µM of Drug; for inhibition at 25 µM / Percentage (%) Cell Growth Inhibition in response to 25 µM of Drug: 72 h, MTT
Method: (§1) All test agents were prepared as stock solutions (20 mM) in dimethyl sulfoxide (DMSO) and stored at −20 °C. Cell lines used in the study included HT29 (colorectal carcinoma); U87, SJ-G2, (glioblastoma); MCF-7, (breast carcinoma); A2780 (ovarian carcinoma); H460 (lung carcinoma); A431 (skin carcinoma); Du145 (prostate carcinoma); BE2-C (neuroblastoma); MiaPaCa-2 (pancreatic carcinoma); and SMA560 (spontaneous murine astrocytoma), together with the one non-tumour-derived normal breast cell line (MCF10A). All cell lines were incubated in a humidified atmosphere 5% CO2 at 37 °C. The cancer cell lines were maintained in Dulbecco’s modified Eagle’s medium (DMEM; Sigma, Australia) supplemented with foetal bovine serum (10%), sodium pyruvate (10 mM), penicillin (100 IUmL^−1), streptomycin (100 µg mL^−1) and L-glutamine (2 mM).
(§2) Growth inhibition was determined by plating cells in duplicate in medium (100 µL) at a density of 2500–4000 cells per well in 96-well plates. On day 0 (24 h after plating), when the cells were in logarithmic growth, medium (100 µL) with or without the test agent was added to each well. After 72 h drug exposure, growth inhibitory effects were evaluated using the MTT (3-(4,5-dimethyltiazol-2-yl)-2,5-diphenyltetrazolium bromide) assay and absorbance read at 540 nm. The percentage growth inhibition was calculated at a fixed concentration of 25 µM, based on the difference between the optical density values on day 0 and those at the end of drug exposure. Each data point is the mean ± the standard error of the mean (SEM) calculated from three replicates which were performed on separate occasions and separate cell line passages.

almond β-glucosidase = experiment: Glycosidase inhibition, laboratory 2: almond β-glucosidase; type: biochemical; settings: water
Method: (§3) All enzymes and para-nitrophenyl substrates were purchased from Sigma. Enzymes were assayed at 27 °C in 0.1 M citric acid/0.2 M disodium hydrogen phosphate buffers at the optimum pH for the enzyme. The incubation mixture consisted of 10 μL enzyme solution, 10 μL of 1 mg/mL aqueous solution of extract and 50 μL of the appropriate 5 mM para-nitrophenyl substrate made up in buffer at the optimum pH for the enzyme. The reactions were stopped by addition of 70 μL 0.4 M glycine (pH 10.4) during the exponential phase of the reaction, which had been determined at the beginning using uninhibited assays in which water replaced inhibitor. Final absorbances were read at 405 nm using a Versamax microplate reader (Molecular Devices). Assays were carried out in triplicate, and the values given are means of the three replicates per assay. All reactions run in water.

E. coli β-glucuronidase = biological target: T1, E. coli β-glucuronidase (Escherichia coli, UniProt P05804); experiment: Glycosidase inhibition, laboratory 1: E. coli β-glucuronidase; type: biochemical; settings: for inhibition at 100 µM: read-out: inhibition % at 100 μM
T1 construct: purchased Sigma-Aldrich Co
T1 sequence (P05804 whole entry): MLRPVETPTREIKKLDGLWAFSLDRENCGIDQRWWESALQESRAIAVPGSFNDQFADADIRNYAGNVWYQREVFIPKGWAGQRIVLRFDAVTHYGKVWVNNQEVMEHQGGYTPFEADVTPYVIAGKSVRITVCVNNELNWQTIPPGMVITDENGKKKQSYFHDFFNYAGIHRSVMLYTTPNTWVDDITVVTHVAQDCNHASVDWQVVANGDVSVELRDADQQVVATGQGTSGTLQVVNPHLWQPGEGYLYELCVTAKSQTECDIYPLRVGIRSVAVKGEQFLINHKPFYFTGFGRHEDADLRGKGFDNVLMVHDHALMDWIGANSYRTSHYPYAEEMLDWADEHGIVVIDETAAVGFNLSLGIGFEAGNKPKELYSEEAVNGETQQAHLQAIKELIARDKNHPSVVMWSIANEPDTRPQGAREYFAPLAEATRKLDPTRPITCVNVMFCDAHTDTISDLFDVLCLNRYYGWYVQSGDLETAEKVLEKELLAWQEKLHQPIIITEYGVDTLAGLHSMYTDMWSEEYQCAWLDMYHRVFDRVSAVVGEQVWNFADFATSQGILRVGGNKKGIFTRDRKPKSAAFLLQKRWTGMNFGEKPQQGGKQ
Source text: (§4) The enzymes α-glucosidase (from yeast), β-glucosidases (from almond and bovine liver), α-galactosidase (from coffee beans), β-galactosidase (from bovine liver), α-mannosidase (from Jack bean), β-mannosidase (from snail), α-L-rhamnosidase (from Penicillium decumbens), α-L-fucosidase (from bovine kidney), trehalase (from porcine kidney), β-glucuronidases (from E. coli and bovine liver), amyloglucosidase (from A. niger), para-nitrophenyl glycosides, and various disaccharides were purchased from Sigma-Aldrich Co (St Louis, MO, USA).
(§5) Brush border membranes were prepared from the rat small intestine according to the method of Kessler et al. and were assayed at pH 6.8 for rat intestinal maltase using maltose. For rat intestinal maltase, porcine kidney trehalase, and A. niger amyloglucosidase activities, the reaction mixture contained 25 mM maltose and the appropriate amount of enzyme, and the incubations were performed for 10–30 min at 37 °C. The reaction was stopped by heating at 100 °C for 3 min. After centrifugation (600× g; 10 min), the resulting reaction mixture was added to the Glucose CII-test Wako (Wako Pure Chemical Ind., Osaka, Japan). The absorbance at 505 nm was measured to determine the amount of the released D-glucose. Other glycosidase activities were determined using an appropriate para-nitrophenyl glycoside as substrate at the optimum pH of each enzyme. The reaction mixture contained 2 mM of the substrate and the appropriate amount of enzyme. The reaction was stopped by addition of 400 mM Na2CO3. The released para-nitrophenol was measured spectrometrically at 400 nm. All reactions run in methanol.

MIA-Pa-Ca2 = experiment: MTT cell growth inhibition: MIA-Pa-Ca2; type: cell-based; settings: 72 h; for inhibition at 25 µM: Homo sapiens, MIA PaCa-2, MIA-Pa-Ca2 pancreatic carcinoma, read-out: Percentage (%) Cell Growth Inhibition in response to 25 µM of Drug; for Percentage (%) Cell Growth Inhibition in response to 25 µM of Drug: MIA-Pa-Ca2 pancreatic carcinoma
Method: as §1, §2

Bacillus α-glucosidase = experiment: Glycosidase inhibition, laboratory 2: Bacillus α-glucosidase; type: biochemical; settings: water
Method: as §3

yeast α-glucosidase = biological target: T2, yeast α-glucosidase (Saccharomyces cerevisiae, UniProt P53341); experiment: Glycosidase inhibition, laboratory 2: yeast α-glucosidase; type: biochemical; settings: for inhibition at 400 µM: read-out: % inhibition at ~400 μM, water; for % inhibition at ~400 μM: water
T2 construct: purchased Sigma
T2 sequence (P53341 whole entry): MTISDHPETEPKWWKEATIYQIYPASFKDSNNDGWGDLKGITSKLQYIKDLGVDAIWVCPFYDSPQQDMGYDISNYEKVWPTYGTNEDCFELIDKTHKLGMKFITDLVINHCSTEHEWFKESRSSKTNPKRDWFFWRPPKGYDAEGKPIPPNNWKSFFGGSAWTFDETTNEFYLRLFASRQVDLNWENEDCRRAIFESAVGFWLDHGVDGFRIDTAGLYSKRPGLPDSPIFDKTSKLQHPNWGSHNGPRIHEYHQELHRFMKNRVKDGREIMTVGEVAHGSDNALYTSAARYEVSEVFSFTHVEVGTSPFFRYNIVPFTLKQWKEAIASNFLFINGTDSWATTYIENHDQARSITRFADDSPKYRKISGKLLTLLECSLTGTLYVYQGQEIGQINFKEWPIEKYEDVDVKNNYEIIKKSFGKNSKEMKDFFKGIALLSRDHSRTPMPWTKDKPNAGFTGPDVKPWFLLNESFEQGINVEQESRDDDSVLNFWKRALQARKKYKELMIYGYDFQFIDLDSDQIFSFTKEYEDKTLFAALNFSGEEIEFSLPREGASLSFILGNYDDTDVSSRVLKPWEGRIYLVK
Method: as §3

[1] = biological target: T3, A. niger amyloglucosidase (Aspergillus niger, UniProt P69328); experiment: Glycosidase inhibition, laboratory 1: amyloglucosidase; type: biochemical; settings: for inhibition at 100 µM: read-out: inhibition % at 100 μM
T3 construct: purchased Sigma-Aldrich Co
T3 sequence (P69328 25-640): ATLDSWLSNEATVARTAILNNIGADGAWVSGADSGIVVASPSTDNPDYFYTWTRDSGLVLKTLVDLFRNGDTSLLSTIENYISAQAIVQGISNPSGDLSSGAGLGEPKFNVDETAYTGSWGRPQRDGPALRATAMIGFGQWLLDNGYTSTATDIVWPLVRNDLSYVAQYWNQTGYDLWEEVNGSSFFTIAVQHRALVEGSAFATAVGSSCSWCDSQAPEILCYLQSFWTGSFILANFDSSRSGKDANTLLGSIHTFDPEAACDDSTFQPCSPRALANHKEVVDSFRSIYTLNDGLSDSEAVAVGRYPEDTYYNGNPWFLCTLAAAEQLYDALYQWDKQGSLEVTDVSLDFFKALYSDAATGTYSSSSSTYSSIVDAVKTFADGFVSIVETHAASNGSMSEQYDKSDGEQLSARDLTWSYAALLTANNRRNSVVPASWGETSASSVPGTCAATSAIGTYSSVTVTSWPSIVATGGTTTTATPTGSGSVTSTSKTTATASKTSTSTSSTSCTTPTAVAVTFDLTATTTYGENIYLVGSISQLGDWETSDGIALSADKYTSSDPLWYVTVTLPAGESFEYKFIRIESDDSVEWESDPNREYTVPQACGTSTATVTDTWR
Source text: as §4, §5

A2780 = experiment: MTT cell growth inhibition: A2780; type: cell-based; settings: A2780 ovarian carcinoma; for GI50 / inhibition at 25 µM: Homo sapiens; for GI50: read-out: GI50 = Concentration (µM) that inhibits cell growth by 50%, dose response; for inhibition at 25 µM / Percentage (%) Cell Growth Inhibition in response to 25 µM of Drug: 72 h, MTT; for inhibition at 25 µM: read-out: Percentage (%) Cell Growth Inhibition in response to 25 µM of Drug
Method: as §1, §2

Du145 = experiment: MTT cell growth inhibition: Du145; type: cell-based; settings: 72 h; for inhibition at 25 µM: Homo sapiens, DU-145, Du145 prostate carcinoma, read-out: Percentage (%) Cell Growth Inhibition in response to 25 µM of Drug; for Percentage (%) Cell Growth Inhibition in response to 25 µM of Drug: Du145 prostate carcinoma
Method: as §1, §2

A431 = experiment: MTT cell growth inhibition: A431; type: cell-based; settings: A431 skin carcinoma; for GI50 / inhibition at 25 µM: Homo sapiens; for GI50: A-431, read-out: GI50 = Concentration (µM) that inhibits cell growth by 50%, dose response; for inhibition at 25 µM: A-431, read-out: Percentage (%) Cell Growth Inhibition in response to 25 µM of Drug; for inhibition at 25 µM / Percentage (%) Cell Growth Inhibition in response to 25 µM of Drug: 72 h, MTT
Method: as §1, §2

BE2-C = experiment: MTT cell growth inhibition: BE2-C; type: cell-based; settings: BE2-C neuroblastoma, 72 h; for inhibition at 25 µM: Homo sapiens, BE(2)-C, read-out: Percentage (%) Cell Growth Inhibition in response to 25 µM of Drug
Method: as §1, §2

[2] = biological target: T4, coffee beans α-galactosidase (Coffea arabica, UniProt Q42656); experiment: Glycosidase inhibition, laboratory 1: coffee beans α-galactosidase; type: biochemical; settings: methanol
T4 construct: purchased Sigma-Aldrich Co
T4 sequence (Q42656 16-378): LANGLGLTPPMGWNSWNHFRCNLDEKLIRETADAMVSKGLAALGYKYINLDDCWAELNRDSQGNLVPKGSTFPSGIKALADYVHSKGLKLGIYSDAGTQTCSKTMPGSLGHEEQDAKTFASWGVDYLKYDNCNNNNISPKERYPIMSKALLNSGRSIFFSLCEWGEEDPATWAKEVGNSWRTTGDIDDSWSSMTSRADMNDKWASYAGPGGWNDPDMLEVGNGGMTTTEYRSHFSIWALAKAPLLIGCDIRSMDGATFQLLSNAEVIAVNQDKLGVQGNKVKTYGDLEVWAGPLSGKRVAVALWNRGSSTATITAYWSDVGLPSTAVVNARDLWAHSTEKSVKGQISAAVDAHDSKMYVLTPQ
Source text: as §4, §5

H460 = experiment: MTT cell growth inhibition: H460; type: cell-based; settings: H460 lung carcinoma; for GI50 / inhibition at 25 µM: Homo sapiens; for GI50: NCI-H460, read-out: GI50 = Concentration (µM) that inhibits cell growth by 50%, dose response; for inhibition at 25 µM: NCI-H460, read-out: Percentage (%) Cell Growth Inhibition in response to 25 µM of Drug; for inhibition at 25 µM / Percentage (%) Cell Growth Inhibition in response to 25 µM of Drug: 72 h, MTT
Method: as §1, §2

[3] = A. niger amyloglucosidase, 100 μM, methanol

Row | Compound | inhibition at 25 µM (MCF-7) [%] | % inhibition at ~400 μM (almond β-glucosidase) [%] | inhibition at 25 µM (MIA-Pa-Ca2) [%] | % inhibition at ~400 μM (Bacillus α-glucosidase) [%] | inhibition at 400 µM (yeast α-glucosidase) [%] | inhibition at 25 µM (A2780) [%] | inhibition at 25 µM (Du145) [%] | inhibition at 25 µM (A431) [%] | inhibition at 25 µM (BE2-C) [%] | inhibition at 25 µM (H460) [%] | inhibition at 100 µM ([2]; 100 μM) [%] | also measured
1 | CC1(C)OB(c2ccccc2NC(=O)c2cc(Cl)c(Cl)c(Cl)c2Cl)OC1(C)C [ortho 5, 2,3,4,5-Tetrachloro-N-(2-(4,4,5,5-tetramethyl-1,3,2-dioxaborolan-2-yl)phenyl)benzamide] | > 100 | 21 | 100 ± 3 | 14.4 | 17.3 | 97 ± 2 | > 100 | 100 ± 2 | > 100 | > 100 | – | GI50 (MCF-7): 12 ± 1.2 µM; inhibition at 10 µM (E. coli β-glucuronidase; E. coli β-glucuronidase, 10 μM, methanol, read-out: inhibition % at 10 μM): 3.8%; inhibition at 10 µM ([1]; A. niger amyloglucosidase, 10 μM, methanol, read-out: inhibition % at 10 μM): 0%; GI50 (A2780): 16 ± 1.2 µM; GI50 (A431): 11 ± 1.8 µM; inhibition at 10 µM ([2]; 10 μM): 0%; GI50 (H460): 13 ± 1 µM
2 | CC1(C)OB(c2ccccc2CNC(=O)c2cc(Cl)c(Cl)c(Cl)c2Cl)OC1(C)C [ortho 8, 2,3,4,5-tetrachloro-N-(2-(4,4,5,5-tetramethyl-1,3,2-dioxaborolan-2-yl)benzyl)benzamide] | < 0 | 83.4 | 6 ± 10 | 23.7 | 68.9 | 19 ± 10 | < 0 | < 0 | 2 ± 5 | 0 | 114 | inhibition at 100 µM (E. coli β-glucuronidase): 41.7%; inhibition at 100 µM [1]: 0%
3 | N[C@@H](Cc1ccc(B(O)O)cc1)C(=O)O [^10B-BPA, reference compound] | – | – | – | – | – | – | – | – | – | – | – | Percentage (%) Cell Growth Inhibition in response to 25 µM of Drug (MCF-7): 1 ± 3%; % inhibition at ~400 μM (almond β-glucosidase; 400 µM): 3%; inhibition % at 100 μM (E. coli β-glucuronidase; E. coli β-glucuronidase, 100 μM, methanol): ^cNI ^d (2.4%); Percentage (%) Cell Growth Inhibition in response to 25 µM of Drug (MIA-Pa-Ca2): 11 ± 3%; % inhibition at ~400 μM (Bacillus α-glucosidase; 400 µM): 19.5%; % inhibition at ~400 μM (yeast α-glucosidase): 3.4%; inhibition % at 100 μM [1, 3]: ^cNI ^d (0%); Percentage (%) Cell Growth Inhibition in response to 25 µM of Drug (A2780): 8 ± 4%; Percentage (%) Cell Growth Inhibition in response to 25 µM of Drug (Du145): 15 ± 9%; Percentage (%) Cell Growth Inhibition in response to 25 µM of Drug (A431): 4 ± 4%; Percentage (%) Cell Growth Inhibition in response to 25 µM of Drug (BE2-C): 10 ± 6%; inhibition % at 100 μM ([2]; 100 μM): ^cNI ^d (1.2%); Percentage (%) Cell Growth Inhibition in response to 25 µM of Drug (H460): 8 ± 5%
4 | CC1(C)OB(c2cccc(NC(=O)c3cc(Cl)c(Cl)c(Cl)c3Cl)c2)OC1(C)C [meta 5, 2,3,4,5-tetrachloro-N-(3-(4,4,5,5-tetramethyl-1,3,2-dioxaborolan-2-yl)phenyl)benzamide] | 16 ± 4 | 18.7 | 8 ± 5 | 54.1 | 82.8 | 49 ± 4 | < 0 | 9 ± 9 | 3 ± 4 | 18 ± 6 | 30.2 | IC50 (E. coli β-glucuronidase; E. coli β-glucuronidase, methanol): 932 µM; inhibition at 100 µM [1, 3]: 2.8%
5 | CC1(C)OB(c2ccc(CN3C(=O)c4c(Cl)c(Cl)c(Cl)c(Cl)c4C3=O)cc2)OC1(C)C [para 3, 4,5,6,7-Tetrachloro-2-(4-(4,4,5,5-tetramethyl-1,3,2-dioxaborolan-2-yl)benzyl)isoindoline-1,3-dione] | > 100 | 15.4 | 98 ± 3 | 17.9 | 29.3 | > 100 | > 100 | 85 ± 8 | > 100 | 100 ± 2 | 0.2 | GI50 (MCF-7): 3 ± 1.3 µM; inhibition at 100 µM (E. coli β-glucuronidase): 2.2%; inhibition at 100 µM [1]: 1%; GI50 (A2780): 11 ± 1.1 µM; GI50 (A431): 18 ± 2.3 µM; GI50 (H460): 13 ± 0.33 µM
6 | Borocaptate sodium [BSH, reference compound] | – | 47.3 | – | 48.1 | – | – | – | – | – | – | – | Percentage (%) Cell Growth Inhibition in response to 25 µM of Drug (MCF-7): 15 ± 3%; inhibition % at 1000 μM (E. coli β-glucuronidase; E. coli β-glucuronidase, 1000 μM, methanol): ^aNI ^b (6%); Percentage (%) Cell Growth Inhibition in response to 25 µM of Drug (MIA-Pa-Ca2): 2 ± 6%; % inhibition at ~400 μM (yeast α-glucosidase): 59%; inhibition % at 1000 μM ([1]; A. niger amyloglucosidase, 1000 μM, methanol): ^aNI ^b (0%); Percentage (%) Cell Growth Inhibition in response to 25 µM of Drug (A2780): 2 ± 5%; Percentage (%) Cell Growth Inhibition in response to 25 µM of Drug (Du145): 0 ± 8%; Percentage (%) Cell Growth Inhibition in response to 25 µM of Drug (A431): <0%; Percentage (%) Cell Growth Inhibition in response to 25 µM of Drug (BE2-C): 10 ± 6%; inhibition % at 1000 μM ([2]; 1000 μM): ^aNI ^b (12.3%); Percentage (%) Cell Growth Inhibition in response to 25 µM of Drug (H460): 8 ± 2%
7 | N[C@@H](Cc1ccc(B(O)O)cc1)C(=O)O [BPA, 4-borono-L-phenylalanine, reference compound] | < 0 | – | 3 ± 3 | – | 2.9 | 4 ± 1 | 19 ± 10 | 4 ± 6 | 13 ± 10 | 7 ± 8 | – | % inhibition at ~400 μM (almond β-glucosidase; 400 µM): 3.9%; % inhibition at ~400 μM (Bacillus α-glucosidase; 400 µM): 19.9%
